From patent EP0165151A1, “Peptide derivatives as renin inhibitors, process for their preparation and their therapeutical application” (SANOFI, priority 1984, dated 1985)
Square brackets hold non-standard residues; d marks the D form. Peptide text beside a SMILES is read from it. * marks the point of attachment. Sta = CC(C)C[C@H](N)[C@@H](O)CC(=O)O; Isovaleryl = CC(C)CC(=O)*; Nle = CCCC[C@H](N)C(=O)O

Assay: Solubility in water
Format: physicochemical
Settings: pH : 7,4
Text: Dans les mêmes conditions les composés SR 42406 sous forme de chlorhydrate et SR 43054 B possèdent une solubilité dans l'eau de 1 % et 4 % environ.

| SMILES | solubilité dans l'eau | solubilité dans l'eau (sous forme de chlorhydrate) [%] |
| --- | --- | --- |
| CCCC[C@H](NC(=O)[C@H](Cc1ccccc1)NC(=O)CC(C)C)C(=O)N[C@@H](CC(C)C)[C@@H](O)CC(=O)N[C@@H](C)C(=O)N[C@@H](CC(C)C)[C@@H](O)CC(=O)N[C@@H](CCCCN)C(=O)O [SR 42 654, iVa - Phe - Nle - Sta - Ala - Sta - Lys - OH] (Isovaleryl-F[Nle][Sta]A[Sta]K-OH) | soluble dans l'eau à environ % | – |
| CCCC[C@H](NC(=O)[C@H](Cc1ccccc1)NC(=O)CC(C)C)C(=O)N[C@@H](CC(C)C)[C@@H](O)CC(=O)N[C@@H](C)C(=O)N[C@@H](CC(C)C)[C@@H](O)CC(=O)N[C@@H](CCCNC(=N)N)C(=O)OC [SR 42406, iVa - Phe - Nle - Sta - Ala - Sta - Arg - OMe] (Isovaleryl-F[Nle][Sta]A[Sta]R-OMe) | – | ~1 |
| CCCC[C@H](NC(=O)[C@H](Cc1ccccc1)NC(=O)CC(C)C)C(=O)N[C@@H](CC(C)C)[C@@H](O)CC(=O)N[C@@H](C)C(=O)N[C@@H](CC(C)C)[C@@H](O)CC(=O)N[C@@H](CC(=O)O)C(=O)O [SR 43504 B, iVa-Phe-Nle-Sta-Ala-Sta-Asp-OH, Disel de trishydroxyméthyl-aminométhane] (Isovaleryl-F[Nle][Sta]A[Sta]D-OH) | ~4% | – |
